Structures are written as SMILES.

From BindingDB's records for doi:10.1021/jm010399h (University of Tennessee Health Science Center, 2002) come the findings set out here.

The target of this assay is Integrase (Human immunodeficiency virus 1, UniProt Q7ZJM1). Nature of the assay: Inhibitory activity against HIV-1 Integrase (HIV-1-IN).
Chain of Integrase (Q7ZJM1 whole entry): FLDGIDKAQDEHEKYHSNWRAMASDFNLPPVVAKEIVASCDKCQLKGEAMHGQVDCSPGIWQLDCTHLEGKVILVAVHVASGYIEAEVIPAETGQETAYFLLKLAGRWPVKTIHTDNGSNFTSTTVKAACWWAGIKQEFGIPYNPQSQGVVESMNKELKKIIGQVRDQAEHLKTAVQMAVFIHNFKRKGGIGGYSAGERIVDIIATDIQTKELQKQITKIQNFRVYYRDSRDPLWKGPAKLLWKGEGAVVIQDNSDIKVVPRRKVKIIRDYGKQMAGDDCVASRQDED

`O=C(C=Cc1ccccc1)CC(=O)C=Cc1ccccc1` [5-Hydroxy-1,7-diphenylhepta-1,4,6-trien-3-one] returned an IC50 of 100 µM.

In turn, `COc1ccc(C=CC(=O)CC(=O)C=Cc2ccc(OC)c(OC)c2)cc1OC` [(1E,4Z,6E)-1,7-bis(3,4-dimethoxyphenyl)-5-hydroxyhepta-1,4,6-trien-3-one] displayed an IC50 of 100 µM.
